Laboratory results reported in US20230382924A1, “MODULATORS OF CYSTIC FIBROSIS TRANSMEMBRANE CONDUCTANCE REGULATOR” (VERTEX PHARMACEUTICALS INCORPORATED, priority 2020, published 2023).
Where two headings read alike, the source gives them in different places.

Molecular target: CFTR (Homo sapiens, UniProt P13569)
Test: Membrane Potential Dye, Enteroid Assay A
Type: cell-based
Settings: for EC50: read-out: Ent. A EC50
Procedure: Base medium (ADF+++) consisted of Advanced DMEM/Ham's F12, 2 mM Glutamax, 10 mM HEPES, […] penicillin/streptomycin.
Bath 1 Buffer consisted of 1 mM MgCl2, 160 mM NaCl, 4.5 mM KCl, 10 mM HEPES, 10 mM Glucose, 2 mM CaCl2).
Chloride Free Buffer consisted of 1 mM Magnesium Gluconate, 2 mM Calcium Gluconate, 4.5 mM Potassium Gluconate, 160 mM Sodium Gluconate, 10 mM HEPES, 10 mM Glucose.
Bath 1 Dye Solution consisted of Bath 1 Buffer, 0.04% Pluronic F127, 20 μM Methyl Oxonol, 30 μM CaCCinh-A01, 30 μM Chicago Sky Blue.
Chloride Free Dye Solution consisted of Chloride Free Buffer, 0.04% Pluronic F127, 20 μM Methyl Oxonol, 30 μM CaCCinh-A01, 30 μM Chicago Sky Blue.
3. Enteroid Cell Harvesting and Seeding
Cells were recovered in cell recovery solution, collected by centrifugation at 650 rpm for 5 min at 4° C., resuspended in TryPLE and incubated for 5 min at 37° C. Cells were then collected by centrifugation at 650 rpm for 5 min at 4° C. and resuspended in IEMM containing 10 μM ROCK inhibitor (RI).
4. Membrane Potential Dye, Enteroid Assay A
Briefly, cells were washed 5 times in Bath 1 Buffer. Bath 1 Dye Solution was added, and the cells were incubated for 25 min at room temperature. Following dye incubation, cells were washed 3 times in Chloride Free Dye Solution. Chloride transport was initiated by addition of Chloride Free Dye Stimulation Solution and the fluorescence signal was read for 15 min. […] Chloride transport was then expressed as a percentage of the chloride transport following treatment with 3 μM N-[(6-amino-2-pyridyl)sulfonyl]-6-(3-fluoro-5-isobutoxy-phenyl)-2-[(4S)-2,2,4-trimethylpyrrolidin-1-yl]pyridine-3-carboxamide, 3 μM (R)-1-(2,2-difluorobenzo[d][1,3]dioxol-5-yl)-N-(1-(2,3-dihydroxypropyl)-6-fluoro-2-(1-hydroxy-2-methylpropan-2-yl)-1H-indol-5-yl)cyclopropanecarboxamide and 300 nM acute N-[2,4-bis(1,1-dimethylethyl)-5-hydroxyphenyl]-1,4-dihydro-4-oxoquinoline-3-carboxamide triple combination control (% Activity).

Sequence of CFTR (P13569 with tags, fused parts or gaps DEL508-508): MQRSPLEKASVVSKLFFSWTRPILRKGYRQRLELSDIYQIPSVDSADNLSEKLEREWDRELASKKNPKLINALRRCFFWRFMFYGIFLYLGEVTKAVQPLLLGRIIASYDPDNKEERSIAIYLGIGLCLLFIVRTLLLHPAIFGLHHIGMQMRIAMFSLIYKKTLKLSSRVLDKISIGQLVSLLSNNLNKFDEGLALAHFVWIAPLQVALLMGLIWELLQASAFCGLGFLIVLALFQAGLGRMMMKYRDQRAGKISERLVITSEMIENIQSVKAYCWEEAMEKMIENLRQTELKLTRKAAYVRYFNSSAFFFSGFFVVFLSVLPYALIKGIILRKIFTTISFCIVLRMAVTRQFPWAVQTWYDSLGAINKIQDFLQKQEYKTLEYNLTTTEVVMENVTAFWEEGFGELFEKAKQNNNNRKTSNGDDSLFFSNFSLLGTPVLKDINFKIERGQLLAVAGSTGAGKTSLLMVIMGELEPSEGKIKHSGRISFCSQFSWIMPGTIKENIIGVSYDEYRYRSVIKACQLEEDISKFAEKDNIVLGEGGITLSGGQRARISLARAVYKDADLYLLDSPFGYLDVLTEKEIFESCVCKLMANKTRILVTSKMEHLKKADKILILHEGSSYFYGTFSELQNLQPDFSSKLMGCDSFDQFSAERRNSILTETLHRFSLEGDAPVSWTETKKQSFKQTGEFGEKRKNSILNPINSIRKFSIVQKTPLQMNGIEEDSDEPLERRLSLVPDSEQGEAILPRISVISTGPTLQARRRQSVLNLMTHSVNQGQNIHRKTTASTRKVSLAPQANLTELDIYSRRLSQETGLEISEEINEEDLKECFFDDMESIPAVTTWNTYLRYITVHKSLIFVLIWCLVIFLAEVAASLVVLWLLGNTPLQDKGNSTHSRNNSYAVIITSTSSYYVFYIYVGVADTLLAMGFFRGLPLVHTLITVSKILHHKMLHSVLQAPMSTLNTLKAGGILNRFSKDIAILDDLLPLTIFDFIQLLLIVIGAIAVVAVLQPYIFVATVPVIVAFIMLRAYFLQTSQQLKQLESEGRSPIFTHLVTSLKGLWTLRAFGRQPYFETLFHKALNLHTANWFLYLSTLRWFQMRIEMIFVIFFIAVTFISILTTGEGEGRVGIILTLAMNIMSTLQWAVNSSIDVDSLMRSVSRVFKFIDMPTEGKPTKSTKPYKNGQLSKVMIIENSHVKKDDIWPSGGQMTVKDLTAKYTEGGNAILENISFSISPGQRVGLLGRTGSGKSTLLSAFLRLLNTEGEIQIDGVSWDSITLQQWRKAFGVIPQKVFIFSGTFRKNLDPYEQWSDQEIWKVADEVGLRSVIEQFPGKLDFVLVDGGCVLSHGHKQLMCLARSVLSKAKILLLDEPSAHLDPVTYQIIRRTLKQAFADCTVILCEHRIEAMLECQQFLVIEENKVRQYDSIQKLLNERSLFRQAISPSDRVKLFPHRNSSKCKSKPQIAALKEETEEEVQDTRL

| Ent. A Max Activity (Table 9) | EC50 (Table 9) [nM] | Ent. A Max Activity (Enteroid Assay A) | EC50 (Enteroid Assay A) [nM] | Structure (SMILES) | other results |
| --- | --- | --- | --- | --- | --- |
| +++ (+++ is >60%) | < 1000 | – | – | Cc1cccc(C)c1-c1cc2nc(n1)NS(=O)(=O)c1cccc(c1)C(=O)NCC(c1ccc(CCC(C)(C)C)cc1)O2 (centres unmarked) [Compound 24, 10-[4-(3,3-dimethylbutyl)phenyl]-6-(2,6-dimethylphenyl)-2,2-dioxo-9-oxa-2λ^6-thia-3,5,12,19-tetrazatricyclo[12.3.1.14,8]nonadeca-1(18),4(19),5,7,14,16-hexaen-13-one] | – |
| +++ (+++ is >60%) | < 1000 | – | – | Cc1cccc(C)c1-c1cc2nc(n1)NS(=O)(=O)c1cccc(c1)C(=O)NCCCC(c1ccc(C(C)(C)C)cc1)O2 (centres unmarked) [Compound 54, 10-(4-tert-butylphenyl)-6-(2,6-dimethylphenyl)-2,2-dioxo-9-oxa-2λ^6-thia-3,5,14,21-tetrazatricyclo[14.3.1.14,8]henicosa-1(20),4(21),5,7,16,18-hexaen-15-one] | – |
| +++ (+++ is >60%) | < 1000 | – | – | Cc1cccc(C)c1-c1cc2nc(n1)NS(=O)(=O)c1cccc(c1)C(=O)N[C@@H]1CN(CCC3(C(F)(F)F)CC3)CC[C@H]1O2 [Compound 58, (3R,8R)-20-(2,6-Dimethylphenyl)-6-{2-[1-(trifluoromethyl)cyclopropyl]ethyl}-2-oxa-16λ^6-thia-6,9,17,19,22-pentaazatetracyclo[16.3.1.111,15.03,8]tricosa-1(21),11,13,15(23),18(22),19-hexaene-10,16,16-trione] | – |
| – | – | +++ (+++ is >600%) | < 1000 | Cc1cccc(C)c1-c1cc2nc(n1)NS(=O)(=O)c1cccc(c1)C(=O)NCC1(CCN(Cc3sccc3Oc3ccccc3)CC1)CO2 [Compound 83, 6-(2,6-Dimethylphenyl)-2,2-dioxo-1′-[(3-phenoxy-2-thienyl)methyl]spiro[9-oxa-2λ^6-thia-3,5,13,20-tetrazatricyclo[13.3.1.14,8]icosa-1(19),4(20),5,7,15,17-hexaene-11,4′-piperidine]-14-one] | – |
| – | – | ++ (++ is 30-60%) | 3000 to 30000 | Cc1cccc(C)c1-c1cc2nc(n1)NS(=O)(=O)c1cccc(c1)C(=O)NCC1(CCN(CC3CCCCC3)CC1)CO2 [Compound 85, 1′-(Cyclohexylmethyl)-6-(2,6-dimethylphenyl)-2,2-dioxo-spiro[9-oxa-2λ^6-thia-3,5,13,20-tetrazatricyclo[13.3.1.14,8]icosa-1(19),4(20),5,7,15,17-hexaene-11,4′-piperidine]-14-one] | – |
| +++ (+++ is >60%) | 1000 to 3000 | – | – | Cc1cccc(C)c1-c1cc2nc(n1)NS(=O)(=O)c1cccc(c1)C(=O)NC1(CCN(CCC(C)(C)C)CC1)CO2 [Compound 86, 1′-(3,3-Dimethylbutyl)-6-(2,6-dimethylphenyl)-2,2-dioxo-spiro[9-oxa-2λ^6-thia-3,5,12,19-tetrazatricyclo[12.3.1.14,8]nonadeca-1(18),4(19),5,7,14,16-hexaene-11,4′-piperidine]-13-one] | – |

More lines, now with the values behind:

| Structure (SMILES) | Ent. A Max Activity (Table 9) | EC50 (Table 9) [nM] | Ent. A Max Activity (Enteroid Assay A) | EC50 (Enteroid Assay A) [nM] | other results |
| --- | --- | --- | --- | --- | --- |
| Cc1cccc(C)c1-c1cc2nc(n1)NS(=O)(=O)c1cccc(c1)C(=O)N[C@@H]1CN(C3CC4(CCCCC4)C3)CC[C@H]1O2 [Compound 60, (3R,8R)-20-(2,6-Dimethylphenyl)-6-{spiro[3.5]nonan-2-yl}-2-oxa-16λ^6-thia-6,9,17,19,22-pentaazatetracyclo[16.3.1.111,15.03,8]tricosa-1(21),11,13,15(23),18(22),19-hexaene-10,16,16-trione] | +++ (+++ is >60%) | < 1000 | – | – | – |
| Cc1cccc(C)c1-c1cc2nc(n1)NS(=O)(=O)c1cccc(c1)C(=O)N[C@@H]1CN(Cc3ccccc3)CC[C@H]1O2 [Compound 61, (3R,8R)-6-Benzyl-20-(2,6-dimethylphenyl)-2-oxa-16λ^6-thia-6,9,17,19,22-pentaazatetracyclo[16.3.1.111,15.03,8]tricosa-1(21),11,13,15(23),18(22),19-hexaene-10,16,16-trione] | +++ (+++ is >60%) | < 1000 | – | – | – |
| Cc1cccc(C)c1-c1cc2nc(n1)NS(=O)(=O)c1cccc(c1)C(=O)NC(C(=O)NC(C)(C)C)CO2 (centres unmarked) [Compound 66, N-tert-butyl-6-(2,6-dimethylphenyl)-2,2,13-trioxo-9-oxa-2λ^6-thia-3,5,12,19-tetrazatricyclo[12.3.1.14,8]nonadeca-1(18),4(19),5,7,14,16-hexaene-11-carboxamide] | – | – | – | – | Ent. A Max Activity (Table 8): + (+ is <30%) |
| CC(C)C[C@@H]1COc2cc(C3CCCCC3(C)C)nc(n2)NS(=O)(=O)c2cccc(c2)C(=O)N1 (stereo partly drawn) [Compound 68, (11R)-6-(2,2-Dimethylcyclohexyl)-11-isobutyl-2,2-dioxo-9-oxa-2λ^6-thia-3,5,12,19-tetrazatricyclo[12.3.1.14,8]nonadeca-1(18),4,6,8(19),14,16-hexaen-13-one] | +++ (+++ is >60%) | 1000 to 3000 | – | – | – |
| Cc1cccc(C)c1-c1cc2nc(n1)NS(=O)(=O)c1cc(ccn1)C(=O)N[C@H](CC1CCCCC1)CO2 [Compound 69, (11R)-11-(Cyclohexylmethyl)-6-(2,6-dimethylphenyl)-2,2-dioxo-9-oxa-2λ^6-thia-3,5,12,17,19-pentazatricyclo[12.3.1.14,8]nonadeca-1(17),4(19),5,7,14(18),15-hexaen-13-one] | – | – | – | – | Ent. A Max Activity (Table 8): +++ (+++ is >60%); EC50 (Table 8): < 1000 nM |
| Cc1cccc(C)c1-c1cc2nc(n1)NS(=O)(=O)c1cccc(c1)C(=O)NCC1(CCN(C(=O)c3cc4ccc(OC(F)(F)F)cc4[nH]3)CC1)CO2 [Compound 84, 6-(2,6-Dimethylphenyl)-2,2-dioxo-1′-[6-(trifluoromethoxy)-1H-indole-2-carbonyl]spiro[9-oxa-2λ^6-thia-3,5,13,20-tetrazatricyclo[13.3.1.14,8]icosa-1(19),4(20),5,7,15,17-hexaene-11,4′-piperidine]-14-one] | – | – | ++ (++ is 30-60%) | < 1000 | – |
| Cc1cccc(C)c1-c1cc2nc(n1)NS(=O)(=O)c1cccc(c1)C(=O)NC(CCC1(C(F)(F)F)CC1)CO2 (centres unmarked) [Compound 92, 6-(2,6-dimethylphenyl)-2,2-dioxo-11-[2-[1-(trifluoromethyl)cyclopropyl]ethyl]-9-oxa-2λ^6-thia-3,5,12,19-tetrazatricyclo[12.3.1.14,8]nonadeca-1(18),4(19),5,7,14,16-hexaen-13-one] | – | – | – | – | Ent. A Max Activity (Table 8): +++ (+++ is >60%); EC50 (Table 8): < 1000 nM |
| CC(C)C[C@@H]1COc2cc(-c3c(C(C)C)cccc3C(C)C)nc(n2)NS(=O)(=O)c2cccc(c2)C(=O)N1 [Compound 99, (11R)-6-(2,6-diisopropylphenyl)-11-isobutyl-2,2-dioxo-9-oxa-2λ^6-thia-3,5,12,19-tetrazatricyclo[12.3.1.14,8]nonadeca-1(18),4,6,8(19),14,16-hexaen-13-one] | – | – | – | – | Ent. A Max Activity (Table 8): +++ (+++ is >60%); EC50 (Table 8): < 1000 nM |
| CC(C)C[C@@H]1COc2cc(-c3ccccc3-c3ccccc3)nc(n2)NS(=O)(=O)c2cccc(c2)C(=O)N1 [Compound 101, (11R)-11-Isobutyl-2,2-dioxo-6-(2-phenylphenyl)-9-oxa-2λ^6-thia-3,5,12,19-tetrazatricyclo[12.3.1.14,8]nonadeca-1(18),4,6,8(19),14,16-hexaen-13-one] | +++ (+++ is >60%) | < 1000 | – | – | – |
| CC(C)C[C@@H]1COc2cc(-c3ccnn3CC(C)C)nc(n2)NS(=O)(=O)c2cccc(c2)C(=O)N1 [Compound 102, (11R)-11-(2-Methylpropyl)-6-[1-(2-methylpropyl)-1H-pyrazol-5-yl]-9-oxa-2λ^6-thia-3,5,12,19-tetraazatricyclo[12.3.1.14,8]nonadeca-1(17),4(19),5,7,14(18),15-hexaene-2,2,13-trione] | – | – | ++ (++ is 30-60%) | 3000 to 30000 | – |
| CC(C)C[C@@H]1COc2cc(-c3ccccc3OC(F)(F)F)nc(n2)NS(=O)(=O)c2cccc(c2)C(=O)N1 [Compound 103, (11R)-11-(2-Methylpropyl)-6-[2-(trifluoromethoxy)phenyl]-9-oxa-2λ^6-thia-3,5,12,19-tetraazatricyclo[12.3.1.14,8]nonadeca-1(17),4(19),5,7,14(18),15-hexaene-2,2,13-trione] | – | – | +++ (+++ is >600%) | < 1000 | – |
| CC(C)CCc1ccccc1-c1cc2nc(n1)NS(=O)(=O)c1cccc(c1)C(=O)N[C@H](CC(C)C)CO2 [Compound 104, (11R)-6-[2-(3-Methylbutyl)phenyl]-11-(2-methylpropyl)-9-oxa-2λ^6-thia-3,5,12,19-tetraazatricyclo[12.3.1.14,8]nonadeca-1(17),4,6,8(19),14(18),15-hexaene-2,2,13-trione] | – | – | ++ (++ is 30-60%) | < 1000 | – |
